In brackets after ≈: the same amount, converted by molar mass. Activity calls are given as the source filed them. The rule behind the calls is not given here.
Tests used:
[1] = biological target: T1, Inhibitor of nuclear factor kappa-B kinase subunit alpha (Homo sapiens, UniProt O15111)
T1 sequence (O15111 whole entry): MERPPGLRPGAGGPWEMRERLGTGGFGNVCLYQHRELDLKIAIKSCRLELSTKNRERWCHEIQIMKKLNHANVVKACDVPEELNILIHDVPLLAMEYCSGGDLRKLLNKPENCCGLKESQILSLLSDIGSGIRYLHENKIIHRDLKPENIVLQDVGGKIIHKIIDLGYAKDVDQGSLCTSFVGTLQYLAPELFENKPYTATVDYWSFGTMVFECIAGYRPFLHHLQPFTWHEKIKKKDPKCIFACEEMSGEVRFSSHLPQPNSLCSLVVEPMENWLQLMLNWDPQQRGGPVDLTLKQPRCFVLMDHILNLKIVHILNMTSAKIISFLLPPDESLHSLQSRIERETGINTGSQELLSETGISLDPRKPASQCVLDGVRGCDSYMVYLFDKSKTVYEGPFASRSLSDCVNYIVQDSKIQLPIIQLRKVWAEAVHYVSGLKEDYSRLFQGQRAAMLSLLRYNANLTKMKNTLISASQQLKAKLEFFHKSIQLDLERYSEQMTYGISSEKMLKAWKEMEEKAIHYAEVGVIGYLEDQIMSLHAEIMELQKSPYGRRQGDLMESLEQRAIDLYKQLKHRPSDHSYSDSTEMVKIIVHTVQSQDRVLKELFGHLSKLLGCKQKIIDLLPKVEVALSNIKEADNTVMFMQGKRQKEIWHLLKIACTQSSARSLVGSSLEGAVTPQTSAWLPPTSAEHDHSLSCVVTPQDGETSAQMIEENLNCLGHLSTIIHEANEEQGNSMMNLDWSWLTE

[2] = biological target: T2, Inhibitor of nuclear factor kappa-B kinase subunit beta (Homo sapiens, UniProt O14920)
T2 sequence (O14920 whole entry): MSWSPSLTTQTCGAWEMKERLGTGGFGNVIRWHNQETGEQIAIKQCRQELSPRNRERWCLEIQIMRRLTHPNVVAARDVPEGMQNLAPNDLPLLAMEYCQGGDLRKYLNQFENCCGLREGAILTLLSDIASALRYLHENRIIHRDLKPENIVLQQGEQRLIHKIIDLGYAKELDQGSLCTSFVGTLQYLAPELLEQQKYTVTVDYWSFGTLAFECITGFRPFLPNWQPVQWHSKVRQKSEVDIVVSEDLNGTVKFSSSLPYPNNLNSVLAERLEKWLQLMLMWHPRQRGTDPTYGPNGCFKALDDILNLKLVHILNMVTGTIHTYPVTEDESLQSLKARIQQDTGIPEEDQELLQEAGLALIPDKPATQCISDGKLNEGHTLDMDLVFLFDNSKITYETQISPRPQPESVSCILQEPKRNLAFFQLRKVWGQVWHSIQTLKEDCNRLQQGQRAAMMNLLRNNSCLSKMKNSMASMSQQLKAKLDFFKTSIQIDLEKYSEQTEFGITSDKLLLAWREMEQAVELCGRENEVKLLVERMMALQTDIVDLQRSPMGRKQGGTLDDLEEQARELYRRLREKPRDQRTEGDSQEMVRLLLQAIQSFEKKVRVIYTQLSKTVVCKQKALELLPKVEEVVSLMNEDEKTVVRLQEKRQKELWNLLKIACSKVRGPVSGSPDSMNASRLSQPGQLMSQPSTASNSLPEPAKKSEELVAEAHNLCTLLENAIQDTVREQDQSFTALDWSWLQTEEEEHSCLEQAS

[3] = Cytotoxicity against Jurkat cells by Alamar blue assay; conditions: human, Jurkat cells
[4] = Aqueous solubility in sodium phosphate buffer at pH 6.5; format: physicochemical
[5] = biological target: T3, Inhibitor of nuclear factor kappa-B kinase subunit epsilon (Homo sapiens) (UniProt Q14164); test: Inhibition of IKKepsilon
T3 sequence (whole entry): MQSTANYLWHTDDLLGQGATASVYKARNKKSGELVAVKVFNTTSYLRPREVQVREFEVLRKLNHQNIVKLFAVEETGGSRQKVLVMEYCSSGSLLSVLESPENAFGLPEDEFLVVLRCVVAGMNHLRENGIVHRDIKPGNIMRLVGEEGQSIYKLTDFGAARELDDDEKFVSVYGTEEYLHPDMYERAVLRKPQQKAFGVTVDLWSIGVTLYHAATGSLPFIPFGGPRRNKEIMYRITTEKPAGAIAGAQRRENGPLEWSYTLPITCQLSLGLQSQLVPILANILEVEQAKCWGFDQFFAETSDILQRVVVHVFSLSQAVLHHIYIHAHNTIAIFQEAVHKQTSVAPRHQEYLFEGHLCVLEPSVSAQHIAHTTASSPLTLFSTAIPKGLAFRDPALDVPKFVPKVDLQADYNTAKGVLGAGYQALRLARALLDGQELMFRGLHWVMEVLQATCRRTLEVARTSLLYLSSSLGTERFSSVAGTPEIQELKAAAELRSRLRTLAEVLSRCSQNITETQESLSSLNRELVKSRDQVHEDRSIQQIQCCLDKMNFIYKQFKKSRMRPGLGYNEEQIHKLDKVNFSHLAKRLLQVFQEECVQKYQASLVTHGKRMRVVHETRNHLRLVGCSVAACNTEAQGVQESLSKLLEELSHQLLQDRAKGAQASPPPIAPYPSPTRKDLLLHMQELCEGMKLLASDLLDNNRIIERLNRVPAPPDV

[6] = biological target: MAP kinase p38 (Homo sapiens) (UniProt O15264+Q15759+Q16539+P53778); test: Inhibition of p38; format: protein assay
[7] = biological target: Epidermal growth factor receptor (Homo sapiens) (UniProt P00533); test: Inhibition of Her1
[8] = biological target: Receptor tyrosine-protein kinase erbB-2 (Homo sapiens) (UniProt P04626); test: Inhibition of Her2
[9] = biological target: Tyrosine-protein kinase Lck (Homo sapiens) (UniProt P06239); test: Inhibition of LCK
[10] = biological target: T4, Tyrosine-protein kinase ITK/TSK (Homo sapiens) (UniProt Q08881); test: Inhibition of EMT
T4 sequence (whole entry): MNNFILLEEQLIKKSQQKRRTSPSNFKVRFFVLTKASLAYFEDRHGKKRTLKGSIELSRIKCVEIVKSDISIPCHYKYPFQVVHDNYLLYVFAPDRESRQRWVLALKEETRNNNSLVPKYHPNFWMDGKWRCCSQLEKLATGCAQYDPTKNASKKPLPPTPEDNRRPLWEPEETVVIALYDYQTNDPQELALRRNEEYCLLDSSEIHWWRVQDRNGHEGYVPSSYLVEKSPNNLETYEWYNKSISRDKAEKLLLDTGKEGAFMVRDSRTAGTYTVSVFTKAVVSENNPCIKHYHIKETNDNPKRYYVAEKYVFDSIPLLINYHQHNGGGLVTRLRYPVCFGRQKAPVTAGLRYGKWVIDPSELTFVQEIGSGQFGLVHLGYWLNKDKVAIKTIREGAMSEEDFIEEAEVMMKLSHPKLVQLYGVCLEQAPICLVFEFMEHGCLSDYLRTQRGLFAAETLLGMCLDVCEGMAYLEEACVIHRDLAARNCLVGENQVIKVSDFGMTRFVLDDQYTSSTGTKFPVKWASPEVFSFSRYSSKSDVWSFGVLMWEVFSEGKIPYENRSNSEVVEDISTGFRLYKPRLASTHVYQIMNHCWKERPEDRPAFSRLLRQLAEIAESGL

Homo sapiens [11] = organism: Homo sapiens; test: Inhibition of VEGF
[12] = biological target: Insulin-like growth factor 1 receptor (Homo sapiens) (UniProt P08069); test: Inhibition of IGF1R
Homo sapiens [13] = organism: Homo sapiens; test: Inhibition of PKA
Jurkat = test: Inhibition of TNF-alpha-induced response in Jurkat cells; conditions: Homo sapiens
Liver microsomes = test: Metabolic stability in human liver microsomes; format: ADME, Microsome
Liver = test: Metabolic stability in mouse liver microsomes; format: ADME, Microsome
[14] = Cmax in mouse at 10 mg/kg, po; format: ADME, organism-based; parameters: dose 10 mg/kg, route oral; conditions: in vivo
[15] = AUC(1 to 4 hrs) in mouse at 10 mg/kg, po; format: ADME, organism-based; parameters: time upper 4 hr, time lower 1 hr, dose 10 mg/kg, route oral; conditions: plasma
PBMC = test: Inhibition of LPS-induced TNFalpha production in PBMC; format: functional, cell-based; conditions: Homo sapiens
Mus musculus [16] = test: Reduction of LPS-induced TNFalpha release in mouse at 30 mg/kg administered 1 hr before LPS challenge; format: functional; parameters: scale not given: the % may be the effect or the level left
[17] = Drug level in LPS-challenged mouse serum at 30 mg/kg after 2.5 hrs; format: ADME, organism-based; parameters: dose 30 mg/kg; conditions: read-out: Activity
Mus musculus [18] = test: Reduction of LPS-induced TNFalpha release in mouse at 30 mg/kg administered 4 hrs before LPS challenge; format: functional
[19] = Drug level in LPS-challenged mouse serum at 30 mg/kg after 5.5 hrs; format: ADME, organism-based; parameters: dose 30 mg/kg; conditions: read-out: Activity
[20] = Tmax in mouse at 10 mg/kg, po; format: ADME, organism-based; parameters: dose 10 mg/kg, route oral; conditions: in vivo

Sequence of Tyrosine-protein kinase Lck (Homo sapiens) (P06239 2-509 limits assumed): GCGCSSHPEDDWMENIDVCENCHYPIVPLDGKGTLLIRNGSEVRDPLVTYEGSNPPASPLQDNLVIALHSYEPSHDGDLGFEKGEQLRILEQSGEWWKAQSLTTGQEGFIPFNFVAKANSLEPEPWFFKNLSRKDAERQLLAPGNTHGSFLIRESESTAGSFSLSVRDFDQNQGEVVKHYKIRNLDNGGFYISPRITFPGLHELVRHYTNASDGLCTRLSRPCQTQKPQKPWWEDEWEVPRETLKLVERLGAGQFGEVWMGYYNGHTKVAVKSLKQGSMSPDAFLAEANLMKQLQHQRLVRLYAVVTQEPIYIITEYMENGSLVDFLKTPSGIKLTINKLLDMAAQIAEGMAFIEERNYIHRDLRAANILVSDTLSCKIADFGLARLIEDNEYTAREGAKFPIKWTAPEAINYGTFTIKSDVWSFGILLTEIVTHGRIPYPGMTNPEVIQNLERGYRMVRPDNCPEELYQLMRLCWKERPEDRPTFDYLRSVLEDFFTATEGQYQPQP
Sequence of Receptor tyrosine-protein kinase erbB-2 (Homo sapiens) (P04626 whole entry): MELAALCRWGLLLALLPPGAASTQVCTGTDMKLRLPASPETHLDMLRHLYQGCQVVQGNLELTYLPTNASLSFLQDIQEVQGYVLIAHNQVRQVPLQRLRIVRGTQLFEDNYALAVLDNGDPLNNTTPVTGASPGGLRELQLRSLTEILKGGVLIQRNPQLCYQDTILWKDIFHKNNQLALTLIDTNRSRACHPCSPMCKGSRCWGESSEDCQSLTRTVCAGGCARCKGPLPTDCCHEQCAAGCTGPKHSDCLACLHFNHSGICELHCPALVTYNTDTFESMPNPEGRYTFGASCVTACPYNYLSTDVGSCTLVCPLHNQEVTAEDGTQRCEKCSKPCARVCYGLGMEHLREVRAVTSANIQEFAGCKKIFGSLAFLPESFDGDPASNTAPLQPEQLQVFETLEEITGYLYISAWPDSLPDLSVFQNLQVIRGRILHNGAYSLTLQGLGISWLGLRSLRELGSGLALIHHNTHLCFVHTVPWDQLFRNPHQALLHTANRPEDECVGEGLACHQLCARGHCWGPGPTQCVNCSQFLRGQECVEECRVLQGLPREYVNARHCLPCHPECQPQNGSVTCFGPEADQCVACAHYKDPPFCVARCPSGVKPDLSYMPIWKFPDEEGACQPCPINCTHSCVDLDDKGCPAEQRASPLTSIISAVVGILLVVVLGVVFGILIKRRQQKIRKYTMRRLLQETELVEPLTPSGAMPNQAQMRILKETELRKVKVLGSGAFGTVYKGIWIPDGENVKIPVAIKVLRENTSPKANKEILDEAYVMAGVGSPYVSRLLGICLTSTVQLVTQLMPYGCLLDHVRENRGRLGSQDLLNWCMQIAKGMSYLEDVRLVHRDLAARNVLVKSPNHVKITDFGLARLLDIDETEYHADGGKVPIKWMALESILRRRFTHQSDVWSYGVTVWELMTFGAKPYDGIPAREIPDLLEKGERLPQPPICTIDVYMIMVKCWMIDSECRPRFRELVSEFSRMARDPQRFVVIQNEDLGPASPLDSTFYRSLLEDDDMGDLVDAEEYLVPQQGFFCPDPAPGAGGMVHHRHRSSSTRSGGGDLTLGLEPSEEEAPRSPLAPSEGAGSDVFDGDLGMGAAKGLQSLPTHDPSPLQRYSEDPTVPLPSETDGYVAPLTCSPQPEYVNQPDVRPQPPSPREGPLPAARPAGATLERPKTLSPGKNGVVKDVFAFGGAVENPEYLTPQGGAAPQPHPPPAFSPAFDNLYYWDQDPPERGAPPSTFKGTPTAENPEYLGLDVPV
Sequence of Epidermal growth factor receptor (Homo sapiens) (P00533 whole entry): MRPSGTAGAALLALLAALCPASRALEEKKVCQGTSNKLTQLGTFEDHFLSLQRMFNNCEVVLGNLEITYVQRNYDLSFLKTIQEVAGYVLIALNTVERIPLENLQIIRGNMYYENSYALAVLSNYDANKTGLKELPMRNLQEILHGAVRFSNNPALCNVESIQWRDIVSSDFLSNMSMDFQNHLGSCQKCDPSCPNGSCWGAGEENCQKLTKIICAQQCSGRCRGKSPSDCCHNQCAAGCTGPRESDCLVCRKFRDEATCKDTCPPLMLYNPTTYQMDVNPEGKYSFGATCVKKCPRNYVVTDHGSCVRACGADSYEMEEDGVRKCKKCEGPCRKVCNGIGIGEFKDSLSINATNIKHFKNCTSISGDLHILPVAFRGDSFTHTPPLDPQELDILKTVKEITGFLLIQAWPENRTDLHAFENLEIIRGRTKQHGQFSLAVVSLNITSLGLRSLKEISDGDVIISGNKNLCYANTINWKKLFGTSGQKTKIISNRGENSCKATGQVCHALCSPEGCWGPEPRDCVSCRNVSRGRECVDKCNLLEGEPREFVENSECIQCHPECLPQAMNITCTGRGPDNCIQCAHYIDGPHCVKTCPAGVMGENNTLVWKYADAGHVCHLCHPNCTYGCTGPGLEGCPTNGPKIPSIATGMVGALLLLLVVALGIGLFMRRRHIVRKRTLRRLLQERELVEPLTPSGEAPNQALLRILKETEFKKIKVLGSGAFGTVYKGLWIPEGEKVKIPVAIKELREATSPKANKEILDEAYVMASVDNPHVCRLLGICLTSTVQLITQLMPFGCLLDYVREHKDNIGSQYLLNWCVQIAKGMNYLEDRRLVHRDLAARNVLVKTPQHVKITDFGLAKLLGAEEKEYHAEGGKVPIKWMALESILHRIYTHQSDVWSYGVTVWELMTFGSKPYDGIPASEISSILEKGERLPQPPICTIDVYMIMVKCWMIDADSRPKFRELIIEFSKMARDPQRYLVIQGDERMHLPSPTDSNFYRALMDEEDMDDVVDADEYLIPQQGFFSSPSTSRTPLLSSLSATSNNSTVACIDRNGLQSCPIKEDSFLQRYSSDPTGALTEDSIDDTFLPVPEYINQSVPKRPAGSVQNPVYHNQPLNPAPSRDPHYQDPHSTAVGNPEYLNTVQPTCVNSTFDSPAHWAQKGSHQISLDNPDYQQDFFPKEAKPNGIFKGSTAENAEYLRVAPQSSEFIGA
Sequence of Insulin-like growth factor 1 receptor (Homo sapiens) (P08069 31-736 limits assumed): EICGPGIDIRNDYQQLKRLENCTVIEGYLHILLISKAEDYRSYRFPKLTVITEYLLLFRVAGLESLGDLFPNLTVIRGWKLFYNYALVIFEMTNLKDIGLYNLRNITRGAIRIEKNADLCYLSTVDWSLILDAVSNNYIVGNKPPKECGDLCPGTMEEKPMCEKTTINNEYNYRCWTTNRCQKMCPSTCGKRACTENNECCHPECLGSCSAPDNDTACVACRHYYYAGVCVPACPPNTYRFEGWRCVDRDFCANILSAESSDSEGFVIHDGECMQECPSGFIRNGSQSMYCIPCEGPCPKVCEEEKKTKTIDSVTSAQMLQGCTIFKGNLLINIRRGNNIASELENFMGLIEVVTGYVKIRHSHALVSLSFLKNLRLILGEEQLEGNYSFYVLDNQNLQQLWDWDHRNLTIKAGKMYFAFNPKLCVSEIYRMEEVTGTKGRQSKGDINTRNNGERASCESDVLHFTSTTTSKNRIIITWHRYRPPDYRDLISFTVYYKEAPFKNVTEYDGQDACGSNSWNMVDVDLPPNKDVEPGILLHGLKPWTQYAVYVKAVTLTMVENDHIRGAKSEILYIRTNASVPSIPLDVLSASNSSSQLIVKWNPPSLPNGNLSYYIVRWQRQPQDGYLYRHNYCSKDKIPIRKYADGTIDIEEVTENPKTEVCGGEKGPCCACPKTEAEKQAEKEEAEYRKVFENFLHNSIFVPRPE
Sequence of Insulin-like growth factor 1 receptor (Homo sapiens) (P08069 741-1367 limits assumed): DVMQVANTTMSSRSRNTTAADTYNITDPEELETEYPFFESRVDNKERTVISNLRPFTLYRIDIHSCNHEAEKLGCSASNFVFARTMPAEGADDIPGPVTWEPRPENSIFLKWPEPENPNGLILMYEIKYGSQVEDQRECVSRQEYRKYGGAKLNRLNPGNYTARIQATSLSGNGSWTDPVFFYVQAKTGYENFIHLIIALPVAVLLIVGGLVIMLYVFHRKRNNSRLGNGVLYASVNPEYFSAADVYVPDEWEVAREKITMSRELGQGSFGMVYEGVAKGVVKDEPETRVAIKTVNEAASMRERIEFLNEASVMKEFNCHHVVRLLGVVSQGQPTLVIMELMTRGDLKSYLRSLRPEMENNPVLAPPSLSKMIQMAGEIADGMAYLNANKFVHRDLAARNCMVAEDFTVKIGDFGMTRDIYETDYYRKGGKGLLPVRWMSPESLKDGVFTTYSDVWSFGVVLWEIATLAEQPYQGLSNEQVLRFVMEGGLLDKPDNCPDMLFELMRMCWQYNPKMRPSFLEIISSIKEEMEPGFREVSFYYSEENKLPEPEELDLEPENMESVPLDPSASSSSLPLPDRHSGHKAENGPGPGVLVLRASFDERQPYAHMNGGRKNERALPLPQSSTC

Row | SMILES | IC50 [1] | IC50 [2] | CC50 [3] | solubility [4] | EC50 (Jurkat) | Stability (Liver microsomes) | Stability (Liver) | Cmax [14] | AUC(0-t) [15] | EC50 (PBMC) | Activity (Mus musculus [16]) | concentration at 2.5 h [17] | Activity (Mus musculus [18]) | concentration at 5.5 h [19] | Tmax [20] | also measured
1 | CNc1nc2cc(-c3ccccc3)sc2n2c(C)cnc12 | 1.09 µM | 0.027 µM | > 100 µM | < 1 µg/mL | 1.35 µM |  |  |  |  |  |  |  |  |  |  | Activity [5]: inactive; Activity [6]: inactive; Activity [7]: inactive; Activity [8]: inactive; Activity [9]: inactive; Activity [10]: inactive; Activity (Homo sapiens [11]): inactive; Activity [12]: inactive; Activity (Homo sapiens [13]): inactive
2 | CNc1nc2cc(-c3cccc(CCNCC(N)=O)c3)sc2n2c(C)cnc12 | 0.39 µM | 0.013 µM | > 100 µM |  | 1.81 µM | 0.017 nmol/mg/min | 0.07 nmol/mg/min | 5.2 µM | 9.6 µM·h | 1.37 µM | 49% | 14.3 µM | inactive | 2.1 µM | 60 min | 
3 | Cc1ccc2nc(NCCN)c3ncc(C)n3c2c1 [BMS-345541] |  |  | 100 µM |  | 13.3 µM | < 0.01 nmol/mg/min | 0.016 nmol/mg/min | 1.4 µM | 3.8 µM·h | 0.8 µM | 82% | 7.6 µM | 70% | 4.2 µM | 30 min | 
4 | CCNC(=O)C(N)Cc1cccc(-c2cc3nc(NC)c4ncc(C)n4c3s2)c1 (racemic) | 1.01 µM | 0.59 µM | 71 µM | 44 µg/mL (≈ 108 µM) | 1.05 µM | 0.069 nmol/mg/min | 0.145 nmol/mg/min | 8.6 µM | 9.89 µM·h | 0.14 µM |  |  |  |  | 30 min | 

Source: ChEMBL document CHEMBL1140018, “Synthesis and structure-activity relationship of imidazo(1,2-a)thieno(3,2-e)pyrazines as IKK-beta inhibitors” (Bioorg Med Chem Lett, 2007)
